Reference: patent US8927280B2, “Compositions and methods for promoting the generation of definitive endoderm” (President and Fellows of Harvard College, priority 2009, dated 2015)
Several values for one entry are separate records, joined by “and”; a condition that tells them apart may be missing. Equal values may be shown once. Entries after “also recorded” stand apart in the source; their conditions may differ.

Legend:
mouse ES cells = assay: Sox17 endoderm induction in mouse ES cell monolayer cultures; format: cell-based; settings: mouse ES cells; for EC50: 144 h, treatment for 6 days, immunofluorescence, titration 50 nM to 5 μM, read-out: EC50 of Sox17 expression; for percentage of cells expressing Sox17 after 12 hrs treatment: analysed at day 6; for day of treatment at which endoderm induction peaks: 14 days time course; for percent of total cells expressing Sox17 at day 6 of treatment: αSox17 immunofluorescence
Experimental: Mouse ES cells were routinely cultured on irradiated CF-1 MEF feeder cells in DMEM (Gibco) media supplemented with 15% Fetal Bovine Serum (HyClone FBS, Invitrogen), 2 mM L-glutamine (L-Glu, Gibco), 1.1 mM 2-mercaptoethanol (Gibco), 1 mM nonessential amino acids (Gibco), 1× penicillin/streptomycin (P/S, Gibco) and 5×10^5 units LIF (Chemicon). Cells were passaged at the ratio of 1:6-1:12 every 2-3 days using 0.25% trypsin. To generate the starting population, mouse ES cells was cultured on MEF feeder cells until they reached 80-90% confluence. Prior to differentiation, ES cells were passaged onto gelatin coated plates for 30 min to remove MEFs. MEF depleted ES cells were seeded at 2500 cells per cm^2 on gelatinized plates. After overnight culture, cells were exposed to 25 ng/ml Wnt3a (R&D Systems)+50 ng/ml recombinant Activin A (R&D Systems) or 500 ng/ml Nodal (R&D Systems) in DMEM (Gibco) supplemented with 1×L-Glu and 0.2% FBS (Gibco) for 1 day, then Activin A or Nodal in the same media and cultured for 4-6 days to induce endoderm differentiation. For the chemical inductions, compounds IDE1 and IDE2 (provided by Stuart L. Schreiber) were added at 5 μM concentration in the differentiation media. For pancreatic progenitors induction, the cells were transferred to 50 ng/ml FGF10 (R&D Systems), 0.75 μM KAAD-cyclopamine (Calbiochem) and 2 μM RA (Sigma) or Indolactam V 330 nM (Axxora) in DMEM supplemented with 1×L-Glu, 1×PS, 1×B27 (Invitrogen) for 4 days. SHB431542 was purchased from Sigma. All stock compounds were made with either DMSO or PBS
(§1) Cells were fixed in 4% paraformaldehyde (Sigma) in PBS for 20 min at 4° C. followed by a wash with PBS. Cells were blocked with 10% donkey serum (Jackson Immunoresearch) in PBS/0.1% Triton X and incubated with primary antibodies overnight at 4° C. Secondary antibodies were incubated for 1 h at room temperature. The following antibodies and dilutions were used: goat anti-SOX17, (1:500 R&D systems); rabbit anti-PDX1 (1:200, Chemicon), rabbit anti-FoxA2 (1:500; Upstate), rabbit anti-Dab2 (1:200, Santa Cruz), rabbit anti-SPARC (1:200, Santa Cruz,), mouse anti-AFP (1:100, Sigma), anti-Gata6 (1:50, Santa Cruz Biotech), goat anti-HNF6 (1:200, Santa Cruz Biotech), rabbit anti-RFP/DsRed (1:300, MBL), rabbit anti-GFP (1:200, Molecular Probes). Secondary antibodies were: rhodamine Red-X-conjugated donkey anti-goat antibody, 1:200 (JIRL), Alexa-488-conjugated goat anti-mouse and Alexa-594-conjugated goat anti-rabbit antibodies (1:300, Molecular Probes). Nuclei were visualized by Hoechst 33342 (1:1000, Molecular Probes). Images were taken using an Olympus IX70 Microscope. For quantification images were analyzed for the frequency of SOX17+, FoxA2+ or Pdx1+ cells using Metamorph image analysis software (Molecular Devices) and at least 6 images per well were collected. Data were confirmed in four independent experiments.
Endoderm formation was monitored by Sox17 expression by either flow cytometry detection of Sox17/DsRed or immunofluorescence using anti-Sox17 antibodies. Cells labeled by antibody staining were quantified using Metamorph software ad percentage of total cell number (based on Hoechst 33342 nuclei staining). All conditions were tested in either tri- or quadruplicates.

[1] = system: human ES cells (HUES 4 and 8); assay: Sox17 endoderm induction in human ES cells; format: cell-based; settings: for dose dependence of Sox17 expression: HUES 4 and 8; for percent of cells expressing Sox17: HUES cells, 4 days, IDE1 100 nM, IDE2 200 nM
Experimental: Human embryonic stem cell lines were cultured essentially as described {Cowan, 2004 #6}. Briefly, HUES4, HUES8 and HUES9 cells are routinely cultured on irradiated CF-1 MEF feeder cells in KnockOut DMEM (Gibco) supplemented with 10% KnockOut Serum Replacement (Gibco), 10% human plasma (Invitrogen), 2 mM L-glutamine (L-Glu, Gibco), 1.1 mM 2-mercaptoethanol (Gibco), 1 mM nonessential amino acids (Gibco), 1× penicillin/streptomycin (PS, Gibco) and 10 ng/ml bFGF (Invitrogen). Cells are split at the ratio of 1:10-1:12 every 4-5 days by using 1 mg/ml collagenase type IV. To induce endoderm formation, HUES cells was cultured on MEF feeder cells till 80-90% confluent, then treated with 100 ng/ml Activin A in advanced RPMI (Gibco) supplemented with 1×L-Glu and 0.2% FBS (Gibco), or with combination of 25 ng/ml Wnt3a (R&D systems)+100 ng/ml Activin A (R&D systems) or were exposed to compounds in the same media. At days 4 and 6 of culture cells were analysed for endodermal marker expression, Sox17.
as §1

Smad2 = assay: Western blot analysis of Smad2 phosphorylation in ES cell lysates; format: cell-based, mouse; settings: ES cell lysates, after 24 hrs or longer
Experimental: Cells were lysed in 1×RIPA lysis buffer in the presence of protease inhibitor mixture (Roche)/1% phosphatase inhibitor mixture (Roche). Proteins were separated by 10% Tris-Glycine SDS/PAGE (Bio-rad) under denaturing conditions and transferred to a nitrocellulose membrane. After blocking with 5% skim milk in PBS/0.1% Triton X, the membrane was incubated with primary antibodies against phospho-Smad2 (1:1000, Cell Signaling) overnight at 4° C. The membrane was then washed, incubated with anti-mouse/rabbit peroxidase-conjugated affinity-purified secondary antibody (1:1000, Cell Signaling) at room temperature for 1 h, and developed by SuperSignal chemiluminescence (Pierce).

SMILES | EC50 (mouse ES cells) [nM] | percentage of cells expressing Sox17 after 12 hrs treatment (mouse ES cells) [%] | day of treatment at which endoderm induction peaks (mouse ES cells) [days] | percentage of cells expressing Sox17 at day 2 of treatment (mouse ES cells) [%] | percent of total cells expressing Sox17 at day 6 of treatment (mouse ES cells) | dose dependence of Sox17 expression [1] | percent of cells expressing Sox17 [1] [%] | phosphorylation of Smad2 / activation of the TGF-β pathway (Smad2) | percentage of cells expressing Sox17 at day 4 of treatment (mouse ES cells; day 4) [%]
O=C(O)CCCCCC(=O)N/N=C/c1ccccc1C(=O)O [IDE1] | 125 | ~40 | 6 | 34 | 80% and 81±14% | dose-depended manner | 62±8.1 | comparable to that induced by Activin A treatment; also recorded: activation of the TGF-β pathway | –
O=C(O)CCCCCC(=O)NN=C1CCCC1 [IDE2] | 223 | ~40 | 6 | 32 | 72% and 76±14% | dose-depended manner | 57±6.7 | comparable to that induced by Activin A treatment; also recorded: activation of the TGF-β pathway | 42±3.83
